Results as given in the supplement of paper PMC10307832.

How the values were obtained:
Test in all cases: relative viability (nuclei count vs DMSO), 5 days (fraction); higher = more cells survive
[1] = compound: O=C(Nc1cccc(C(F)(F)F)c1)Nc1cc(S(=O)(=O)NC2CC2)ccc1-c1ccsc1 [AGI-6780] + CC1(C)CCC(c2ccc(Cl)cc2)=C(CN2CCN(c3ccc(C(=O)NS(=O)(=O)c4ccc(N[C@H](CCN5CCOCC5)CSc5ccccc5)c(S(=O)(=O)C(F)(F)F)c4)cc3)CC2)C1 [Navitoclax] (partner 0.5 µM)
In short: (§1)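 Relative viability equals treated-well nuclei counts divided by vehicle-well nuclei counts. Counts came from 4× images of lung cancer cell lines grown in 1536-well plates for 5 days after pin-tool dosing on the day after seeding. Dosing used one drug alone or a fixed anchor-drug dose plus five library-drug doses (not always all listed) in √10 steps, and values are medians of duplicate plates.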

[2] = compound: O=C(Nc1cccc(C(F)(F)F)c1)Nc1cc(S(=O)(=O)NC2CC2)ccc1-c1ccsc1 [AGI-6780] + C[C@]1(O)C[C@@H](c2nc(-c3ccc4ccc(-c5ccccc5)nc4c3)c3c(N)nccn32)C1 [Linsitinib] (partner 1 µM)
In short: as §1

[3] = compound: O=C(Nc1cccc(C(F)(F)F)c1)Nc1cc(S(=O)(=O)NC2CC2)ccc1-c1ccsc1 [AGI-6780] + Cc1nc(NC(=O)N2CCC[C@H]2C(N)=O)sc1-c1ccnc(C(C)(C)C(F)(F)F)c1 [Alpelisib] (partner 2 µM)
In short: as §1

[4] = compound: O=C(Nc1cccc(C(F)(F)F)c1)Nc1cc(S(=O)(=O)NC2CC2)ccc1-c1ccsc1 [AGI-6780] + O=C(CCCCCCC(=O)Nc1ccccc1)NO [Vorinostat] (partner 1 µM)
In short: as §1

Cell Line	relative viability ([1]; first compound 0.08 µM)	relative viability ([1]; first compound 0.253 µM)	relative viability ([1]; first compound 0.8 µM)	relative viability ([1]; first compound 8 µM)	relative viability ([2]; first compound 0.08 µM)	relative viability ([2]; first compound 0.253 µM)	relative viability ([2]; first compound 0.8 µM)	relative viability ([2]; first compound 8 µM)	relative viability ([3]; first compound 0.08 µM)	relative viability ([3]; first compound 0.253 µM)	relative viability ([3]; first compound 0.8 µM)	relative viability ([3]; first compound 8 µM)	relative viability ([4]; first compound 0.08 µM)	relative viability ([4]; first compound 0.253 µM)	relative viability ([4]; first compound 0.8 µM)	relative viability ([4]; first compound 2.53 µM)	relative viability ([4]; first compound 8 µM)	relative viability ([1]; first compound 2.53 µM)	relative viability ([2]; first compound 2.53 µM)	relative viability ([3]; first compound 2.53 µM)
LK-2	0.891	0.844	1.01	1.11	0.617	0.646	0.536	0.522	1.27	1.1	1.29	0.986	0.334	0.286	0.347	0.259	0.567	–	–	–
NCI-H838	1.19	1.09	1.17	1.11	1.12	0.964	1.07	0.908	1.05	0.927	1.01	0.959	0.801	0.687	0.738	0.647	0.672	1.06	0.851	0.825
HCC-44	0.969	1.02	0.94	1.11	0.714	0.73	0.693	0.597	0.874	0.755	0.826	0.817	1.16	1.03	1.13	1.08	1.11	0.856	0.622	0.626
IA-LM	0.761	0.768	0.908	0.959	0.58	0.627	0.762	0.56	0.858	0.846	0.719	0.707	–	0.857	1.06	1.04	0.778	0.787	0.536	0.797
NCI-H1734	0.889	0.814	0.778	0.861	1.01	0.975	0.728	0.945	0.752	0.705	0.671	0.733	0.798	0.842	0.865	0.728	0.799	–	–	–
NCI-H1944	1.07	1.09	1.01	1.02	1.22	1.28	1.24	1.13	0.862	0.886	0.821	0.767	0.641	0.523	0.575	–	0.579	0.792	0.931	0.7
CAL-12T	1.2	1.17	1.38	1.25	0.771	0.726	0.72	0.892	1.33	1.15	1.29	1.13	0.884	0.729	1.16	0.662	0.732	1.53	1	1.23
NCI-H661	–	–	–	–	0.624	0.53	0.599	0.534	0.483	0.713	0.791	0.59	0.815	0.863	0.809	0.793	0.734	–	0.458	0.51
NCI-H1648	–	–	–	–	–	–	–	–	–	–	–	–	0.377	0.689	0.566	0.423	0.419	–	–	–
SW 900	–	–	–	–	–	–	–	–	–	–	–	–	0.485	0.484	0.707	0.548	0.586	–	–	–
ABC-1	–	–	–	–	0.756	0.501	0.835	0.601	1.14	0.918	1.08	1.24	–	1.52	1.38	0.842	1.03	–	0.736	0.829
NCI-H650	–	–	–	–	0.906	0.867	0.992	0.895	1.15	0.956	1.15	1.26	0.465	0.466	0.393	0.389	0.465	–	0.883	0.855
NCI-H1650	1.25	1.08	1.29	1.14	–	–	–	–	–	–	–	–	0.583	0.592	0.646	0.489	0.549	1.19	–	–
NCI-H2170	0.595	0.54	0.674	0.564	–	–	–	–	0.813	0.838	0.86	0.772	0.882	0.996	0.835	–	0.833	–	–	–
NCI-H522	–	–	–	–	–	–	–	–	–	–	–	–	0.922	0.946	1.05	–	0.825	–	–	–
A549	1.31	1.27	1.37	1.23	0.585	0.594	0.701	0.545	0.797	0.662	0.76	0.747	–	–	–	–	–	1.13	0.452	0.593
NCI-H358	–	–	–	–	0.792	0.721	0.752	0.663	0.896	0.906	0.835	0.721	1.07	0.616	0.709	0.602	0.675	–	0.551	0.63
LCLC-103H	–	–	–	–	1.18	1.15	0.963	1.06	0.916	1.01	0.906	0.78	0.746	0.861	0.759	0.576	0.781	–	1.06	0.983
NCI-H1299	1.02	1.06	0.97	1.02	1.01	0.987	0.941	1.04	1.02	1.04	0.971	1.02	–	–	–	–	–	1.06	1.05	1.09
Calu-6	0.948	0.815	0.846	0.891	0.984	1.02	0.897	0.955	1.01	0.977	0.97	1.04	–	–	–	–	–	0.833	0.852	0.945
NCI-H1792	0.377	0.613	0.834	0.625	0.53	0.519	0.519	0.408	0.763	0.677	0.693	0.558	–	–	–	–	–	0.629	0.544	0.702
NCI-H1563	–	–	–	–	1.27	1.22	1.24	1.08	0.923	0.934	0.846	0.874	–	–	–	–	–	–	1.11	0.992
ChaGo-K-1	0.894	1.25	1.15	0.992	–	–	–	–	–	–	–	–	0.727	0.787	0.745	0.63	0.825	0.746	–	–
